Test results as given in patent US11242537B2, “Method for improving sensitivity of plant to gibberellin inhibitor and use thereof” (CHINA AGRICULTURAL UNIVERSITY, priority 2017, dated 2022).

Experiments:
HRP::ga1-1 = test: Effect of DPC on plant height of transgenic Arabidopsis thaliana (step 4.1), HRP::ga1-1; assay type: in vivo; details: for Plant height reduction rate / Plant height: HRP::ga1-1; for Plant height reduction rate: relative to 0 mg/L DPC-treated plant; for Plant height: cultured 12 days
Experimental: (§1) In the following examples, the growth conditions of Arabidopsis thaliana are: culturing in a growth chamber with a photoperiod of 16 h light/8 h dark, a light intensity of 60 μmol/m^2/s, a humidity of 60%-70%, and a temperature of 22° C.
(§2) The experiment was repeated three times, and the specific steps of each repeated experiment were as follows:
(§3) Thirty homozygous line plants of the HRP::ga1-1 of step 2 were randomly selected and randomly divided into three groups, ten plants in each group. On the 33rd day of sowing (the day of sowing was recorded as the first day of sowing), the plants of these three groups were treated as follows, respectively one group was sprayed with water (i.e., 0 mg/L DPC solution) and cultured for 12 days to obtain untreated HRP::ga1-1; one group was sprayed with 30 mg/L DPC solution and cultured for 12 days to obtain 30 mg/L DPC-treated HRP::ga1-1; the last group was sprayed with 500 mg/L aqueous DPC solution and cultured for 12 days to obtain 500 mg/L DPC-treated HRP::ga1-1.
(§4) The plant heights of the above Arabidopsis thaliana before the treatment (FIG. 1) and after different treatments (FIG. 2 and Table 2) were measured.

ZmCPS::ga1-1 = test: Effect of DPC on plant height (step 4.1), ZmCPS::ga1-1; assay type: in vivo, Arabidopsis thaliana; details: for Plant height: 12 days; for Plant height reduction rate: relative to 0 mg/L
Experimental: as §1, §2, §3
(§5) According to the above method, the homozygous line plants of the HRP::ga1-1 were replaced with the homozygous line plants of the HRP::ga1-5, the homozygous line plants of the ZmCPS::ga1-1, the homozygous line plants of the ZmCPS::ga1-5, the homozygous line plants of the PsSuper1300::ga1-1 and the homozygous line plants of the PsSuper1300::ga1-5 respectively, the other steps were unchanged, and untreated HRP::ga1-5, 30 mg/L DPC-treated HRP::ga1-5, 500 mg/L DPC-treated HRP::ga1-5, untreated ZmCPS::ga1-1, 30 mg/L DPC-treated ZmCPS::ga1-1, 500 mg/L DPC-treated ZmCPS::ga1-1, untreated ZmCPS::ga1-5, 30 mg/L DPC-treated ZmCPS::ga1-5, 500 mg/L DPC-treated ZmCPS::ga1-5, untreated PsSuper1300::ga1-1, 30 mg/L DPC-treated PsSuper1300::ga1-1, 500 mg/L DPC-treated PsSuper1300::ga1-1, untreated PsSuper1300::ga1-5, 30 mg/L DPC-treated PsSuper1300::ga1-5 and 500 mg/L DPC-treated PsSuper1300::ga1-5 were obtained, respectively.
as §4

pSuper1300::ga1-1 = test: Effect of DPC on plant height (step 4.1), empty vector pSuper1300::ga1-1; assay type: in vivo, Arabidopsis thaliana; details: for Plant height: 12 days; for Plant height reduction rate: relative to 0 mg/L
Experimental: as §1, §2, §3, §5, §4

ga1-1 = test: Effect of DPC on plant height (step 4.1), mutant ga1-1; assay type: in vivo, Arabidopsis thaliana; details: for Plant height: 12 days; for Plant height reduction rate: relative to 0 mg/L
Experimental: as §1, §2
When the ga1-1 was cultured to the 33rd day of sowing (the day of sowing was recorded as the first day of sowing), 30 plants were taken and randomly divided into three groups, ten plants in each group and the plants of these three groups were treated as follows, respectively: one group was sprayed with 0 mg/L DPC solution and cultured for 12 days to obtain untreated ga1-1; one group was sprayed with 30 mg/L aqueous DPC solution and cultured for 12 days to obtain 30 mg/L DPC-treated ga1-1; the last group was sprayed with 500 mg/L DPC solution and cultured for 12 days to obtain 500 mg/L DPC-treated ga1-1.
as §4

HRP::ga1-5 = test: Effect of DPC on plant height (step 4.1), HRP::ga1-5; assay type: in vivo, Arabidopsis thaliana; details: for Plant height / Plant height reduction rate: HRP::ga1-5; for Plant height: 12 days; for Plant height reduction rate: relative to 0 mg/L
Experimental: as §1, §2, §3, §5, §4

ZmCPS::ga1-5 = test: Effect of DPC on plant height (step 4.1), ZmCPS::ga1-5; assay type: in vivo, Arabidopsis thaliana; details: for Plant height: 12 days
Experimental: as §1, §2, §3, §5, §4

C[N+]1(C)CCCCC1.[Cl-] [DPC, 1,1-dimethylpiperidinium chloride]
Plant height of HRP::ga1-1 as multiple of correspondingly treated ZmCPS::ga1-1 (HRP::ga1-1; 30 mg/L DPC): 0.68 times
Plant height of HRP::ga1-1 as multiple of correspondingly treated ga1-1 (HRP::ga1-1; 30 mg/L DPC): 2.71 times
Plant height reduction rate of HRP::ga1-1 as multiple of that of ga1-1 (HRP::ga1-1; 30 mg/L DPC): 2.49 times
Plant height of HRP::ga1-1 as multiple of correspondingly treated ZmCPS::ga1-1 (HRP::ga1-1; 500 mg/L DPC): 0.41 times
Plant height of HRP::ga1-1 as multiple of correspondingly treated ga1-1 (HRP::ga1-1; 500 mg/L DPC): 1.71 times
Plant height reduction rate of HRP::ga1-1 as multiple of that of ga1-1 (HRP::ga1-1; 500 mg/L DPC): 3.47 times
Plant height reduction rate (HRP::ga1-1; 30 mg/L DPC): 33.92%
Plant height reduction rate (HRP::ga1-1; 500 mg/L DPC): 60.18%
Plant height (HRP::ga1-1; sprayed with 30 mg/L DPC on 33rd day of sowing): 11.2 ± 0.24 cm
Plant height (HRP::ga1-1; sprayed with 500 mg/L DPC on 33rd day of sowing): 6.75 ± 0.38 cm
Plant height (ZmCPS::ga1-1; 30 mg/L DPC spray): 16.52 ± 0.31 cm
Plant height reduction rate (ZmCPS::ga1-1; 30 mg/L DPC): −0.12%
Plant height (ZmCPS::ga1-1; 500 mg/L DPC spray): 16.45 ± 0.21 cm
Plant height reduction rate (ZmCPS::ga1-1; 500 mg/L DPC): 0.30%
Effect of DPC on plant height (in words) (ZmCPS::ga1-1; 30 and 500 mg/L DPC): no effect
Plant height (pSuper1300::ga1-1; 30 mg/L DPC spray): 4.33 ± 0.27 cm
Plant height reduction rate (pSuper1300::ga1-1; 30 mg/L DPC): 4.84%
Plant height (pSuper1300::ga1-1; 500 mg/L DPC spray): 3.98 ± 0.17 cm
Plant height reduction rate (pSuper1300::ga1-1; 500 mg/L DPC): 12.53%
Plant height (ga1-1; 30 mg/L DPC spray): 4.13 ± 0.25 cm
Plant height reduction rate (ga1-1; 30 mg/L DPC): 13.60%
Plant height (ga1-1; 500 mg/L DPC spray): 3.95 ± 0.10 cm
Plant height reduction rate (ga1-1; 500 mg/L DPC): 17.36%
Plant height of HRP::ga1-5 as multiple of correspondingly treated ZmCPS::ga1-5 (HRP::ga1-5; 30 mg/L DPC): 0.64 times
Plant height of HRP::ga1-5 as multiple of correspondingly treated ga1-5 (HRP::ga1-5; 30 mg/L DPC): 1.65 times
Plant height reduction rate of HRP::ga1-5 as multiple of that of ga1-5 (HRP::ga1-5; 30 mg/L DPC): 4.68 times
Plant height of HRP::ga1-5 as multiple of correspondingly treated ZmCPS::ga1-5 (HRP::ga1-5; 500 mg/L DPC): 0.38 times
Plant height of HRP::ga1-5 as multiple of correspondingly treated ga1-5 (HRP::ga1-5; 500 mg/L DPC): 1.00 times
Plant height reduction rate of HRP::ga1-5 as multiple of that of ga1-5 (HRP::ga1-5; 500 mg/L DPC): 6.66 times
Plant height (HRP::ga1-5; 30 mg/L DPC spray): 10.80 ± 0.43 cm
Plant height reduction rate (HRP::ga1-5; 30 mg/L DPC): 31.99%
Plant height (HRP::ga1-5; 500 mg/L DPC spray): 6.41 ± 0.18 cm
Plant height reduction rate (HRP::ga1-5; 500 mg/L DPC): 59.63%
Plant height (ZmCPS::ga1-5; 30 mg/L DPC spray): 16.79 ± 0.13 cm
Plant height reduction rate (ZmCPS::ga1-5; 30 mg/L DPC, relative to 0 mg/L): 0.06%
Plant height (ZmCPS::ga1-5; 500 mg/L DPC spray): 16.66 ± 0.31 cm
